Results published in patent US9902696B2, “1,4-substituted piperidine derivatives” (Cephalon, Inc., priority 2015, dated 2018).
Structures can show the parent of a compound that is named as a salt.

target: T1, recombinant human baculovirus-expressed GST-tagged FASN (Homo sapiens, UniProt P49327); assay: FASN enzyme activity assay, fluorescence-based detection of CoA with CPM; format: biochemical; conditions: 5 nM FASN, 150 μM NADPH, 10 μM acetyl-CoA, 25 μM malonyl-CoA, 90 minutes incubation; read-out: IC50 data for Additional Compounds of Formulae I-V(a): Activity
T1 construct: GST
How it was run: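 Human GST-tagged FASN, baculovirus-expressed (5 nM), in 50 mM HEPES pH 7.5 with 150 μM NADPH, 10 μM acetyl-CoA, 25 μM malonyl-CoA, 0.5% DMSO; malonyl-CoA-started, 90 min. Released CoA detected with CPM (50 μM dilution), 30 min, fluorescence ex 390/em 530. IC50 from variable-slope sigmoidal fit of % inhibition versus log concentration.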

T1 sequence (P49327 whole entry): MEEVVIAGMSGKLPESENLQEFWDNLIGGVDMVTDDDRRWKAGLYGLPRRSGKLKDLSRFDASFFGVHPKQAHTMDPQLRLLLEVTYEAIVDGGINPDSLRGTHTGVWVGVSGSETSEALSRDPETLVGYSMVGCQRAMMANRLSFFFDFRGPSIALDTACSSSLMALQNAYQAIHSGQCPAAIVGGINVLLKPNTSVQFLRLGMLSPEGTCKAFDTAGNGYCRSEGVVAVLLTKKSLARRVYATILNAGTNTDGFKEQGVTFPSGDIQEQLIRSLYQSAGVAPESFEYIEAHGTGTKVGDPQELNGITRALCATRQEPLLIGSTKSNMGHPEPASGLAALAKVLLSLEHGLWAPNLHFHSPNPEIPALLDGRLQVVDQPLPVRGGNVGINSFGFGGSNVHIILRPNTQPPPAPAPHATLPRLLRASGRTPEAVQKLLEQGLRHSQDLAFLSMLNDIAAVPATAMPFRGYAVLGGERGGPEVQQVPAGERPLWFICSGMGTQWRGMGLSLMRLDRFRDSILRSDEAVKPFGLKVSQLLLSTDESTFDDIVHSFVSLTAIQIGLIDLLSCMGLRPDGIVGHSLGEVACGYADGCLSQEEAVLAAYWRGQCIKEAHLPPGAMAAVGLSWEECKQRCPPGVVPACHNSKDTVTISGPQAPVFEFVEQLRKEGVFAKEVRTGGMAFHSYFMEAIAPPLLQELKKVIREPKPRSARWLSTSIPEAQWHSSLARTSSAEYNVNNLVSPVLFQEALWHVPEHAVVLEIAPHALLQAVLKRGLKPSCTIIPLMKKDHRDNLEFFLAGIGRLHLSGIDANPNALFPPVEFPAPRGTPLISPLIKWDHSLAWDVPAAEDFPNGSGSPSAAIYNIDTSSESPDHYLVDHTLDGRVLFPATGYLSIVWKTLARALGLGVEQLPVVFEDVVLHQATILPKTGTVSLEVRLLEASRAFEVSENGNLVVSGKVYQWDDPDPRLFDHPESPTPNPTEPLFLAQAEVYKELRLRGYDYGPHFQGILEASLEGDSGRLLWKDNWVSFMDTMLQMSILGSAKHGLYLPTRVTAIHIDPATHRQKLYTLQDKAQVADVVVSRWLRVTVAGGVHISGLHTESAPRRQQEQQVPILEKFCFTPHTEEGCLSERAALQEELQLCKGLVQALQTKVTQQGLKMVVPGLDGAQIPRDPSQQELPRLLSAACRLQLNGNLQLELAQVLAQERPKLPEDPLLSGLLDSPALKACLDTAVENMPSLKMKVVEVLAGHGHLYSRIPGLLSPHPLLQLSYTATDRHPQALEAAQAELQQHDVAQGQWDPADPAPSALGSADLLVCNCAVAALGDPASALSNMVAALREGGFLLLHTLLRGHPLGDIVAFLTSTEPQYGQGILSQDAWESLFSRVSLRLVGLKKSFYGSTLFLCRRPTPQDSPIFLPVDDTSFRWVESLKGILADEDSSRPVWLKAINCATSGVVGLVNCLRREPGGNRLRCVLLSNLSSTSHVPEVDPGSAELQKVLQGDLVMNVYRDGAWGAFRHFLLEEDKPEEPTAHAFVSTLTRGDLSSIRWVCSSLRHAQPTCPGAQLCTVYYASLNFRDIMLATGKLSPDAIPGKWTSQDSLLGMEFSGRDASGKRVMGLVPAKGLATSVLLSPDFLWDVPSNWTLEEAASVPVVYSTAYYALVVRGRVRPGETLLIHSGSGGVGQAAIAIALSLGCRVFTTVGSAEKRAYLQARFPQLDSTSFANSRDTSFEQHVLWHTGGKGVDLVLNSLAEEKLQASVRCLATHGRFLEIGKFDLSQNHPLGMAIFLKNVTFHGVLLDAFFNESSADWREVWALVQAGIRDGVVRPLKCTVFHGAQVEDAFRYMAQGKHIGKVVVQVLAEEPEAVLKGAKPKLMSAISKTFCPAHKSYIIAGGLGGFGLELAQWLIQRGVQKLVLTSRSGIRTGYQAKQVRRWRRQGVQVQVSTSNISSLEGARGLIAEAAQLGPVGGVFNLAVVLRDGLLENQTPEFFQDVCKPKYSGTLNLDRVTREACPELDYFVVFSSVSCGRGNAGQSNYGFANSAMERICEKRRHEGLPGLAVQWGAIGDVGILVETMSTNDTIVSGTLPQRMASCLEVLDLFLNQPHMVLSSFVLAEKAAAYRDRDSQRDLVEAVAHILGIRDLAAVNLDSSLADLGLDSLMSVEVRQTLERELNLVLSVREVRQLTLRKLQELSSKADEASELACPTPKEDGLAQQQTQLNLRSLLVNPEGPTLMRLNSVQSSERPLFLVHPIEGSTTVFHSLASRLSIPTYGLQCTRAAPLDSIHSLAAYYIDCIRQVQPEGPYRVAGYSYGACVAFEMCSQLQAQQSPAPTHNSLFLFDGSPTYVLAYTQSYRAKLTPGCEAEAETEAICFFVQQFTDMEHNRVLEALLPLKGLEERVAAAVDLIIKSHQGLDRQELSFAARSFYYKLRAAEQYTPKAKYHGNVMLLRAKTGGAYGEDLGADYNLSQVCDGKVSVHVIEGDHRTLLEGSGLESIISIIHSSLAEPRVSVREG

Compared with `Cc1c(-c2ccc(OC3CCN(C(=O)NCC(C)C)CC3)cc2)ccc2cccnc12` [Example 541, N-Isobutyl-4-[4-(8-methyl-7-quinolyl)phenoxy]piperidine-1-carboxamide, HCl], `Cc1c(-c2ccc(OC3CCN(C(=O)COC(C)C)CC3)cc2)ccc2cccnc12` [Example 624, 2-Isopropoxy-1-[4-[4-(8-methyl-7-quinolyl)phenoxy]-1-piperidyl]ethanone, HCl] is higher in IC50: 0.001 to 0.099 µM for the first, 1 to 10 µM for the second. The first is the more potent here.

First: CNC1(C(=O)N2CCC(Oc3ccc(-c4ccc5cccnc5c4C)cc3)CC2)CC1 [Example 622, [1-(Methylamino)cyclopropyl]-[4-[4-(8-methyl-7-quinolyl)phenoxy]-1-piperidyl]methanone]
Second: Cc1c(-c2ccc(OC3CCN(C(=O)NCCN4CCCC4)CC3)cc2)ccc2cccnc12 [Example 530, 4-[4-(8-Methyl-7-quinolyl)phenoxy]-N-(2-pyrrolidin-1-ylethyl)piperidine-1-carboxamide HCl]
The IC50 of the first is higher: 1 to 10 µM for the first, 0.001 to 0.099 µM for the second. The second is the more potent here.

`CCCNC(=O)N1CCC(Oc2ccc(-c3ccc4nccn4c3C)cc2)CC1` [Example 594, 4-[4-(5-Methylimidazo[1,2-a]pyridin-6-yl)phenoxy]-N-propyl-piperidine-1-carboxamide] was tested, and the IC50 was 0.001 to 0.099 µM.

same assay, conditions: 5 nM FASN, 150 μM NADPH, 10 μM acetyl-CoA, 25 μM malonyl-CoA, 90 minutes incubation; read-out: IC50 data for Compounds of Formulae I-V/V(a): Activity

First: CCC(=O)N1[C@@H]2CC[C@H]1C[C@H](Oc1ccc(-c3ccc4cccnc4c3C)cc1)C2 [Example 361, 1-{exo-3-[4-(8-Methylquinolin-7-yl)-phenoxy]-8-aza-bicyclo[3.2.1]oct-8-yl}-propan-1-one HCl]
Second: Cc1c(-c2ccc(OC3CCN(C(=O)C4CC4)CC3)cc2)ccc2cccnc12 [Example 37, Cyclopropyl-{4-[4-(8-methylquinolin-7-yl)-phenoxy]-piperidin-1-yl}-methanone]
The IC50 of the first is higher: 1 to 10 µM for the first, 0.001 to 0.099 µM for the second.

Compared with `CCC(=O)N1CCC(Oc2ccc(-c3ccc4ccccc4n3)cc2)CC1` [Example 40, 1-[4-(4-Quinolin-2-yl-phenoxy)-piperidin-1-yl]-propan-1-one], `CCC(=O)N1CCC(Oc2ccc(-c3ccc4ccc(C)nc4c3)cc2)CC1` [Example 253, 1-{4-[4-(2-Methylquinolin-7-yl)-phenoxy]-piperidin-1-yl}-propan-1-one, TFA salt] is higher in IC50: 0.1 to 0.999 µM for the first, 1 to 10 µM for the second. The first is the more potent here.

First: CCC(=O)N1CCC(Oc2ccc(-c3ccc4c(C)nccc4c3)cc2)CC1 [Example 425, 1-{4-[4-(1-Methylisoquinolin-6-yl)-phenoxy]-piperidin-1-yl}-propan-1-one]
Second: CCC(=O)N1CCC(Oc2ccc(-c3cc(C)c4nccn4c3)cc2)CC1 [Example 284, 1-{4-[4-(8-Methylimidazo[1,2-a]pyridin-6-yl)-phenoxy]-piperidin-1-yl}-propan-1-one]
The IC50 of the first is lower: 0.001 to 0.099 µM for the first, 1 to 10 µM for the second.

`N#Cc1ccc(-c2ccc(OC3CCN(C(=O)[C@H]4CCCO4)CC3)cc2)cc1` [Example 244, 4′-[1-((R)-Tetrahydrofuran-2-carbonyl)-piperidin-4-yloxy]-biphenyl-4-carbonitrile] and `Cc1cccc2ncc(-c3ccc(OC4CCN(C(=O)[C@H]5CCCO5)CC4)cc3)cc12` [Example 462, {4-[4-(5-Methylquinolin-3-yl)-phenoxy]-piperidin-1-yl}-(R)-tetrahydro-furan-2-yl-methanone, HCl] fall in the same range of IC50: 0.001 to 0.099 µM for the first, 0.001 to 0.099 µM for the second.

Compared with `CCC(=O)N1CCC(Oc2ccc(-c3ccc4cccnc4c3)cc2Cl)CC1` [Example 194, 1-[4-(2-Chloro-4-quinolin-7-yl-phenoxy)-piperidin-1-yl]-propan-1-one], `CCC(=O)N1CCC(Oc2ccc(-c3ccc4cccnc4c3)cn2)CC1` [Example 135, 1-[4-(5-Quinolin-7-yl-pyridin-2-yloxy)-piperidin-1-yl]-propan-1-one, HCl] is lower in IC50: 1 to 10 µM for the first, 0.1 to 0.999 µM for the second. The second is the more potent here.

First: NC(=O)C1(C(=O)N2CCC(Oc3ccc(-c4ccc5cncn5c4)cc3)CC2)CC1 [Example 301, 1-[4-(4-Imidazo[1,5-a]pyridin-6-yl-phenoxy)-piperidine-1-carbonyl]-cyclopropanecarboxylic acid amide]
Second: CC1(C(=O)N2CCC(Oc3ccc(-c4cnc5ccccc5c4)cc3)CC2)CCCO1 (stereo not drawn) [Example 115, (2-Methyltetrahydrofuran-2-yl)-[4-(4-quinolin-3-yl-phenoxy)-piperidin-1-yl]-methanone, HCl]
The IC50 of the first is higher: 1 to 10 µM for the first, 0.1 to 0.999 µM for the second. The second is the more potent here.

`Cc1c(-c2ccc(OC3CCN(C(=O)C4(CO)CC4)CC3)cc2)ccc2nccn12` [Example 304, (1-Hydroxymethylcyclopropyl)-{4-[4-(5-methyl-imidazo[1,2-a]pyridin-6-yl)-phenoxy]-piperidin-1-yl}-methanone] and `CCC(=O)N1CCC(Oc2ccc(-c3ccc4nccn4c3C)cc2)CC1` [Example 286, 1-{4-[4-(5-Methylimidazo[1,2-a]pyridin-6-yl)-phenoxy]-piperidin-1-yl}-propan-1-one] fall in the same range of IC50: 1 to 10 µM for the first, 1 to 10 µM for the second.

`COc1cc2ncc(-c3ccc(OC4CCN(C(=O)[C@H]5CCCO5)CC4)cc3)cc2cc1F` [Example 446, {4-[4-(6-Fluoro-7-methoxyquinolin-3-yl)-phenoxy]-piperidin-1-yl}-(R)-tetrahydrofuran-2-yl-methanone] and `COc1cc2ncc(-c3ccc(OC4CCN(C(=O)C5CC5)CC4)cc3)cc2cc1F` [Example 445, Cyclopropyl-{4-[4-(6-fluoro-7-methoxyquinolin-3-yl)-phenoxy]-piperidin-1-yl}-methanone] fall in the same range of IC50: 1 to 10 µM for the first, 1 to 10 µM for the second.

First: O=C(C1CCC1)N1CCC(Oc2ccc(-c3ccc4cccnc4c3F)cc2)CC1 [Example 24, Cyclobutyl-{4-[4-(8-fluoroquinolin-7-yl)-phenoxy]-piperidin-1-yl}-methanone]
Second: Cc1c(-c2ccc(O[C@@H]3CCN(C(=O)C4CC4)C[C@H]3F)cc2)ccc2cccnc12 (relative stereo) [Example 374, Cyclopropyl-{trans-3-fluoro-4-[4-(8-methylquinolin-7-yl)-phenoxy]-piperidin-1-yl}-methanone, HCl]
The IC50 of the first is lower: 0.001 to 0.099 µM for the first, 0.1 to 0.999 µM for the second.

First: Cc1cc2cccnc2cc1-c1ccc(OC2CCN(C(=O)[C@H]3CCCO3)CC2)cc1 [Example 275, {4-[4-(6-Methylquinolin-7-yl)-phenoxy]-piperidin-1-yl}-(R)-tetrahydro-furan-2-yl-methanone]
Second: Cc1cccc2cc(-c3ccc(OC4CCN(C(=O)[C@H]5CCCO5)CC4)cc3)cnc12 [Example 488, {4-[4-(8-Methylquinolin-3-yl)-phenoxy]-piperidin-1-yl}-(R)-tetrahydro-furan-2-yl-methanone]
The IC50 of the first is higher: 0.1 to 0.999 µM for the first, 0.001 to 0.099 µM for the second. The second is the more potent here.

`O=C(C1CC1)N1CCC(Oc2ccc(-c3cncc(Oc4ccccc4)c3)cc2)CC1` [Example 399, Cyclopropyl-{4-[4-(5-phenoxy-pyridin-3-yl)-phenoxy]-piperidin-1-yl}-methanone, HCl] and `CCC(=O)N1CCC(Oc2ccc(-c3cncc(Oc4ccccc4)c3)cc2)CC1` [Example 397, 1-{4-[4-(5-Phenoxypyridin-3-yl)-phenoxy]-piperidin-1-yl}-propan-1-one, TFA] fall in the same range of IC50: 1 to 10 µM for the first, 1 to 10 µM for the second.

`O=C(c1cccc(-c2ncc[nH]2)c1)N1CCC(Oc2ccc(-c3cnc4ccccc4c3)cc2)CC1` [Example 129, [3-(1H-Imidazol-2-yl)-phenyl]-[4-(4-quinolin-3-yl-phenoxy)-piperidin-1-yl]-methanone, HCl] and `O=C1OCCN1C(=O)N1CCC(Oc2ccc(-c3cnc4ccccc4c3)cc2)CC1` [Example 241, 3-[4-(4-Quinolin-3-yl-phenoxy)-piperidine-1-carbonyl]-oxazolidin-2-one] fall in the same range of IC50: 1 to 10 µM for the first, 1 to 10 µM for the second.

`COc1cc2cc(-c3ccc(OC4CCN(C(=O)C5CC5)CC4)cc3)cnc2cc1OC` [Example 56, Cyclopropyl-{4-[4-(6,7-dimethoxyquinolin-3-yl)-phenoxy]-piperidin-1-yl}-methanone] and `O=C(C1CC1)N1CCC(Oc2ccc(-c3cncc(-c4ccccc4)c3)cc2)CC1` [Example 384, Cyclopropyl-{4-[4-(5-phenyl-pyridin-3-yl)-phenoxy]-piperidin-1-yl}-methanone, TFA salt] fall in the same range of IC50: 1 to 10 µM for the first, 1 to 10 µM for the second.

First: Cc1c(-c2ccc(OC3CCN(C(=O)NC(C)C)CC3)cc2)ccc2cccnc12 [Example 92, N-Isopropyl-4-[4-(8-methyl-7-quinolyl)phenoxy]piperidine-1-carboxamide]
Second: CC(C)C(=O)N1CCC(Oc2ccc(-c3ccc4cccnc4c3)cc2)CC1 [Example 3, 2-Methyl-1-[4-(4-quinolin-7-yl-phenoxy)-piperidin-1-yl]-propan-1-one]
The IC50 of the first is higher: 1 to 10 µM for the first, 0.1 to 0.999 µM for the second.

Compared with `CC1(C(=O)N2CCC(Oc3ccc(-c4cnc5ccccc5c4)cc3)CC2)OCCO1` [Example 116, (2-Methyl-1,3-dioxolan-2-yl)-[4-(4-quinolin-3-yl-phenoxy)-piperidin-1-yl]-methanone, HCl], `CC(C)C(=O)N1CCC(Oc2ccc(-c3cnc4cccnc4c3)cc2)CC1` [Example 13, 2-Methyl-1-[4-(4-1,5-naphthyridin-3-yl-phenoxy)-piperidin-1-yl]-propan-1-one] is higher in IC50: 0.001 to 0.099 µM for the first, 1 to 10 µM for the second.

Compared with `CCC(=O)N1CCC(Oc2cc(F)c(-c3cnc4ccccc4c3)cc2F)CC1` [Example 215, 1-[4-(2,5-Difluoro-4-quinolin-3-yl-phenoxy)-piperidin-1-yl]-propan-1-one], `CCC(=O)N1CCC(Oc2ccc(-c3cnc4ccoc4c3)cc2)CC1` [Example 51, 1-[4-(4-Furo[3,2-b]pyridin-6-yl-phenoxy)-piperidin-1-yl]-propan-1-one] is higher in IC50: 0.1 to 0.999 µM for the first, 1 to 10 µM for the second. The first is the more potent here.

`CC(C)C(=O)N1CCC(Oc2ccc(-c3ccc(-c4ccccc4)nc3)cc2)CC1` [Example 379, 2-Methyl-1-{4-[4-(6-phenylpyridin-3-yl)-phenoxy]-piperidin-1-yl}-propan-1-one] and `CC(C)C(=O)N1CCC(S(=O)(=O)c2ccc(-c3ccc4cccnc4c3)cc2)CC1` [Example 512, 2-Methyl-1-[4-(4-quinolin-7-yl-benzenesulfonyl)-piperidin-1-yl]-propan-1-one] fall in the same range of IC50: 1 to 10 µM for the first, 1 to 10 µM for the second.
